Data published in ChEMBL document CHEMBL1127392, “5-Phenyl-3-ureidobenzazepin-2-ones as cholecystokinin-B receptor antagonists” (J Med Chem, 1994).

Target: T1, Cholecystokinin receptor type A (Cavia porcellus, UniProt Q63931)
T1 sequence (Q63931 whole entry): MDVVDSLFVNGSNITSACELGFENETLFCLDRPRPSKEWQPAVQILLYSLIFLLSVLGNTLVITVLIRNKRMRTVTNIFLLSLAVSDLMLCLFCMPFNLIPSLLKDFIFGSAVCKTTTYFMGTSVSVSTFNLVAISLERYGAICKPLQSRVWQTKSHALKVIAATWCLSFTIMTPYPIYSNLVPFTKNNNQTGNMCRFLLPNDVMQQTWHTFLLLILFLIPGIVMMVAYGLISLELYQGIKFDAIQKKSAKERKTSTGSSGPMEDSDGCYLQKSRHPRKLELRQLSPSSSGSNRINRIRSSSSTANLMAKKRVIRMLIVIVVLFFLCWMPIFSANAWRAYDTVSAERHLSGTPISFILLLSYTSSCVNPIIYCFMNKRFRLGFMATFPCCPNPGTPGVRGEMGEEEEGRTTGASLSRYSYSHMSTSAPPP
Assay: In vitro binding affinity for the cholecystokinin type A receptor in guinea pig pancreas assayed using [125I]BH-CCK-8 as radioligand

| SMILES | IC50 [nM] |
| --- | --- |
| CCc1ccc2c(c1)N(CC(=O)NC(C)(C)C)C(=O)[C@H](NC(=O)Nc1cccc(Cl)c1)C[C@@H]2c1ccccc1 | 71 |
| CC1(NC(=O)CN2C(=O)[C@H](NC(=O)Nc3cccc(Cl)c3)C[C@H](c3ccccc3)c3ccccc32)CCCCC1 | 467 |
| CC(C)(C)NC(=O)CN1C(=O)[C@H](NC(=O)Nc2cccc(Cl)c2)C[C@H](C2CCCCC2)c2ccccc21 | 171 |
| Cc1cccc(NC(=O)N[C@@H]2C[C@H](c3ccccc3)c3ccccc3N(CC(=O)NC(C)(C)C)C2=O)c1 | 288 |
| Cc1ccccc1NC(=O)N[C@@H]1C[C@H](c2ccccc2)c2ccccc2N(CC(=O)NC(C)(C)C)C1=O | 1470 |
| CC(C)(C)NC(=O)CN1C(=O)[C@H](NC(=O)Nc2cccc(Cl)c2)C[C@H](c2ccccc2)c2ccccc21 | 144 |
| CC(C)(C)NC(=O)CN1C(=O)[C@H](NC(=O)Nc2cccc(Cl)c2)C[C@H](c2cccc(Cl)c2)c2ccccc21 | 69 |
| Cc1cccc(NC(=O)N[C@@H]2C[C@H](c3ccccc3)c3ccccc3N(CC(=O)OC(C)(C)C)C2=O)c1 | 50 |
| Cc1ccc2c(c1)N(CC(=O)OC(C)(C)C)C(=O)[C@H](NC(=O)Nc1cccc(Cl)c1)C[C@@H]2c1ccccc1 | 34 |
| Cc1ccc(NC(=O)N[C@@H]2C[C@H](c3ccccc3)c3ccccc3N(CC(=O)NC(C)(C)C)C2=O)cc1 | 1140 |
| CC(C)(NC(=O)CN1C(=O)[C@H](NC(=O)Nc2cccc(Cl)c2)C[C@H](c2ccccc2)c2ccccc21)c1ccccc1 | 460 |
| Cc1cccc(NC(=O)N[C@@H]2N=C(c3ccccc3)c3ccccc3N(C)C2=O)c1 [L-365260] | 86 |

Further lines, results first:

| IC50 [nM] | SMILES |
| --- | --- |
| 144 | CCC(C)(C)NC(=O)CN1C(=O)[C@H](NC(=O)Nc2cccc(Cl)c2)C[C@H](c2ccccc2)c2ccccc21 |
| > 10000 | CC(C)(C)NC(=O)CN1C(=O)[C@@H](NC(=O)Nc2cccc(Cl)c2)C[C@H](C2CCCCC2)c2ccccc21 |
| 77 | Cc1cccc2c1N(CC(=O)NC(C)(C)C)C(=O)[C@H](NC(=O)Nc1cccc(Cl)c1)C[C@@H]2c1ccccc1 |
| 166 | COc1cccc(NC(=O)N[C@@H]2C[C@H](c3ccccc3)c3ccccc3N(CC(=O)NC(C)(C)C)C2=O)c1 |
| 317 | Cc1ccc2c(c1)[C@@H](c1ccccc1)C[C@@H](NC(=O)Nc1cccc(Cl)c1)C(=O)N2CC(=O)NC(C)(C)C |
| 4.2 | CN(C(=O)CN1C(=O)[C@H](NC(=O)Nc2cccc(Cl)c2)C[C@H](c2ccccc2)c2ccccc21)C(C)(C)C |
| > 10000 | Cc1ccc2c(c1)N(CC(=O)NC(C)(C)C)C(=O)[C@H](NC(=O)Nc1cccc(Cl)c1)C[C@@H]2Cc1ccccc1 |
| 320 | CC(C)(C)NC(=O)CN1C(=O)[C@H](NC(=O)Nc2cccc(Cl)c2)C[C@H](c2ccccc2)c2ccc(Cl)cc21 |
| 399 | CC(C)(C)NC(=O)CN1C(=O)[C@H](NC(=O)Nc2ccc(Cl)cc2)C[C@H](c2ccccc2)c2ccccc21 |
| 560 | Cc1ccc2c(c1)N(CC(=O)NC(C)(C)C)C(=O)[C@H](NC(=O)Nc1cccc(Cl)c1)C[C@@H]2C1CCCCC1 |
| 363 | Cc1ccc2c(c1)N(CC(=O)NC(C)(C)C)C(=O)[C@@H](NC(=O)Nc1cccc(Cl)c1)C[C@H]2c1ccccc1 |
| 287 | CC(C)(C)NC(=O)CN1C(=O)[C@H](NC(=O)Nc2cccc(Cl)c2)C[C@H](c2ccccc2)c2cc(Cl)ccc21 |
| 72 | Cc1ccc2c(c1)N(CC(=O)NC(C)(C)C)C(=O)[C@H](NC(=O)Nc1cccc(Cl)c1)C[C@@H]2C(C)C |
| 417 | Cc1ccc([C@H]2C[C@@H](NC(=O)Nc3cccc(Cl)c3)C(=O)N(CC(=O)NC(C)(C)C)c3cc(C)ccc32)cc1 |
| 176 | Cc1ccc2c(c1)N(CC(=O)NC(C)(C)C)C(=O)[C@H](NC(=O)Nc1cccc(Cl)c1)C[C@@H]2c1ccccc1 (stereo in doubt; 4) |
| 130 | Cc1ccc2c(c1)N(CC(=O)NC(C)(C)C)C(=O)[C@H](NC(=O)Nc1cccc(Cl)c1)C[C@@H]2c1ccccc1 (stereo in doubt; 43a) |
